# USRE48461E1, “Modulation of androgen receptor expression” (Ionis Pharmaceuticals, Inc., priority 2012, dated 2021)
# How the values were obtained:
# Type in all cases: cell-based, human
# [1] = test system: C4-2B cells; experiment: C4-2B cell proliferation, ASO in combination with MDV3100 (Example 21); conditions: for Proliferation (% untreated control) in C4-2B without MDV-3100: 5 days
# Method: C4-2B cells were plated at 1,000 cells per well. […] ISIS 549148 was included as a negative control. […] After a treatment period of 5 days, the proliferative capacity of the cancer cells was measured with CellTiter 96® AQueous One Solution Cell Proliferation kit (Promega), following the manufacturer's instructions. […]
# [2] = test system: 22RV1 cells; experiment: 22RV1 cell proliferation, ASO in combination with MDV3100 (Example 22); conditions: for Proliferation (% untreated control) in 22RV1 without MDV-3100: RNAiMAX, 3 days
# How it was run: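 Cells seeded at 2,000 per well in 5% CSS medium for 48 h, then treated for 3 days. Proliferation read with a tetrazolium (CellTiter 96 AQueous One) kit and given as percent inhibition relative to untreated cells.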
# [3] = test system: AR mRNA; experiment: AR RNA expression in LNCaP cells (complete, CSS, CSS+DHT medium); conditions: for Percent expression of AR in LNCaP cells cultured in CSS + DHT medium: CSS + DHT (1 nM) medium; for Percent expression of AR in LNCaP cells cultured in CSS + DHT medium / Percent expression of AR in LNCaP cells cultured in CSS medium: 48 hrs; for Percent expression of AR in LNCaP cells cultured in complete medium: 48 hours
# [4] = test system: LNCaP cells; experiment: LNCaP cell proliferation (complete or CSS+DHT medium); conditions: 5 days; for Proliferation (% untreated control) in LNCaP cells cultured in CSS + DHT medium: CSS + 1 nM DHT medium
# How it was run: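 Proliferation of LNCaP cells read after 5 days of treatment in complete medium or charcoal-stripped serum medium plus 1 nM DHT, using CellTiter 96 AQueous One (MTS) or CellTiter-Glo.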
# [5] = test system: TMPRSS2 mRNA; experiment: TMPRSS2 expression in C4-2 cells; conditions: 48 hrs; for Percent inhibition of TMPRSS2 expression: C4-2 cells, CSS + DHT medium
# Method: Cells were plated at 1,000 cells per well. […] After an incubation period of 48 hrs, RNA levels of AR, PSA and TMPRSS2 were measured.
# Cells were plated at 2,000 cells per well and cultured in CSS media with 1 nM DHT. […] After an incubation period of 48 hrs, RNA levels of AR, PSA and TMPRSS2 were measured.
# [6] = test system: AR mRNA; experiment: AR RNA expression in C4-2B cells (complete, CSS+DHT medium; Example 30); conditions: 48 hrs
# How it was run: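 C4-2B cells were plated at 1,000 cells per well in complete medium, or at 2,000 cells per well in CSS medium with 1 nM DHT. ISIS 549148 served as the negative control. AR, PSA and TMPRSS2 RNA levels were measured after 48 hrs.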
sequence,measurement,setting,value
"TGATTTAATGGTTGCA [ISIS 569236] (cEt/MOE gapmer chemistry, further chemistry not given here) [targets intron 1]",Proliferation (% untreated control) in C4-2B with 0.08 μM MDV-3100,[1]; ASO dose 0.04 μM + 0.08 μM MDV-3100,79 % untreated control
same,Proliferation (% untreated control) in C4-2B with 0.4 μM MDV-3100,[1]; ASO dose 0.04 μM + 0.4 μM MDV-3100,63 % untreated control
same,Proliferation (% untreated control) in C4-2B with 2.0 μM MDV-3100,[1]; ASO dose 0.04 μM + 2.0 μM MDV-3100,45 % untreated control
same,Proliferation (% untreated control) in C4-2B with […] MDV-3100,[1]; ASO dose 0.04 μM + […] MDV-3100,74 % untreated control
same,Proliferation (% untreated control) in C4-2B without MDV-3100,[1]; ASO dose 0.04 μM,72 % untreated control
same,Proliferation (% untreated control) in C4-2B with 0.08 μM MDV-3100,[1]; ASO dose 0.08 μM + 0.08 μM MDV-3100,89 % untreated control
same,Proliferation (% untreated control) in C4-2B with 0.4 μM MDV-3100,[1]; ASO dose 0.08 μM + 0.4 μM MDV-3100,90 % untreated control
same,Proliferation (% untreated control) in C4-2B with 2.0 μM MDV-3100,[1]; ASO dose 0.08 μM + 2.0 μM MDV-3100,44 % untreated control
same,Proliferation (% untreated control) in C4-2B with […] MDV-3100,[1]; ASO dose 0.08 μM + […] MDV-3100,107 % untreated control
same,Proliferation (% untreated control) in C4-2B without MDV-3100,[1]; ASO dose 0.08 μM,100 % untreated control
same,Proliferation (% untreated control) in C4-2B with 0.08 μM MDV-3100,[1]; ASO dose 0.2 μM + 0.08 μM MDV-3100,51 % untreated control
same,Proliferation (% untreated control) in C4-2B with 0.4 μM MDV-3100,[1]; ASO dose 0.2 μM + 0.4 μM MDV-3100,48 % untreated control
same,Proliferation (% untreated control) in C4-2B with 2.0 μM MDV-3100,[1]; ASO dose 0.2 μM + 2.0 μM MDV-3100,48 % untreated control
same,Proliferation (% untreated control) in C4-2B with […] MDV-3100,[1]; ASO dose 0.2 μM + […] MDV-3100,65 % untreated control
same,Proliferation (% untreated control) in C4-2B without MDV-3100,[1]; ASO dose 0.2 μM,63 % untreated control
same,Proliferation (% untreated control) in C4-2B with 0.08 μM MDV-3100,[1]; ASO dose 1.0 μM + 0.08 μM MDV-3100,43 % untreated control
same,Proliferation (% untreated control) in C4-2B with 0.4 μM MDV-3100,[1]; ASO dose 1.0 μM + 0.4 μM MDV-3100,39 % untreated control
same,Proliferation (% untreated control) in C4-2B with 2.0 μM MDV-3100,[1]; ASO dose 1.0 μM + 2.0 μM MDV-3100,46 % untreated control
same,Proliferation (% untreated control) in C4-2B with […] MDV-3100,[1]; ASO dose 1.0 μM + […] MDV-3100,55 % untreated control
same,Proliferation (% untreated control) in C4-2B without MDV-3100,[1]; ASO dose 1.0 μM,51 % untreated control
same,synergy with MDV3100,[1]; C4-2B cells,synergistic with MDV3100
same,"cell proliferation inhibited, combination","[1]; C4-2B cells, 0.2 μM ASO in combination with 0.08 μM MDV3100",52%
same,"inhibited cell proliferation, ASO alone","[1]; C4-2B cells, ASO alone at 0.2 μM",37%
same,synergy with MDV3100,[2]; 22RV1 cells,synergistic with MDV3100
same,"inhibited cell proliferation, ASO alone","[2]; 22RV1 cells, ASO alone at 1.0 μM",17%
same,"cell proliferation inhibited, combination","[2]; 22RV1 cells, ISIS 569236 (1.0 μM as printed) in combination with 1.0 μM MDV3100",30%
same,Proliferation (% untreated control) in 22RV1 cells with 0.04 μM MDV-3100,[2]; ASO dose 0.4 nM + 0.04 μM MDV-3100,83 % untreated control
same,Proliferation (% untreated control) in 22RV1 cells with 0.2 μM MDV-3100,[2]; ASO dose 0.4 nM + 0.2 μM MDV-3100,93 % untreated control
same,Proliferation (% untreated control) in 22RV1 cells with 1.0 μM MDV-3100,[2]; ASO dose 0.4 nM + 1.0 μM MDV-3100,79 % untreated control
same,Proliferation (% untreated control) in 22RV1 cells with 5.0 μM MDV-3100,[2]; ASO dose 0.4 nM + 5.0 μM MDV-3100,82 % untreated control
same,Proliferation (% untreated control) in 22RV1 without MDV-3100,[2]; ASO dose 0.4 nM,97 % untreated control
same,Proliferation (% untreated control) in 22RV1 cells with 0.04 μM MDV-3100,[2]; ASO dose 1.34 nM + 0.04 μM MDV-3100,70 % untreated control
same,Proliferation (% untreated control) in 22RV1 cells with 0.2 μM MDV-3100,[2]; ASO dose 1.34 nM + 0.2 μM MDV-3100,77 % untreated control
same,Proliferation (% untreated control) in 22RV1 cells with 1.0 μM MDV-3100,[2]; ASO dose 1.34 nM + 1.0 μM MDV-3100,70 % untreated control
same,Proliferation (% untreated control) in 22RV1 cells with 5.0 μM MDV-3100,[2]; ASO dose 1.34 nM + 5.0 μM MDV-3100,72 % untreated control
same,Proliferation (% untreated control) in 22RV1 without MDV-3100,[2]; ASO dose 1.34 nM,83 % untreated control
same,Proliferation (% untreated control) in 22RV1 cells with 0.04 μM MDV-3100,[2]; ASO dose 4.0 nM + 0.04 μM MDV-3100,61 % untreated control
same,Proliferation (% untreated control) in 22RV1 cells with 0.2 μM MDV-3100,[2]; ASO dose 4.0 nM + 0.2 μM MDV-3100,60 % untreated control
same,Proliferation (% untreated control) in 22RV1 cells with 1.0 μM MDV-3100,[2]; ASO dose 4.0 nM + 1.0 μM MDV-3100,52 % untreated control
same,Proliferation (% untreated control) in 22RV1 cells with 5.0 μM MDV-3100,[2]; ASO dose 4.0 nM + 5.0 μM MDV-3100,52 % untreated control
same,Proliferation (% untreated control) in 22RV1 without MDV-3100,[2]; ASO dose 4.0 nM,69 % untreated control
same,Proliferation (% untreated control) in 22RV1 cells with 0.04 μM MDV-3100,[2]; ASO dose 13.4 nM + 0.04 μM MDV-3100,24 % untreated control
same,Proliferation (% untreated control) in 22RV1 cells with 0.2 μM MDV-3100,[2]; ASO dose 13.4 nM + 0.2 μM MDV-3100,20 % untreated control
same,Proliferation (% untreated control) in 22RV1 cells with 1.0 μM MDV-3100,[2]; ASO dose 13.4 nM + 1.0 μM MDV-3100,18 % untreated control
same,Proliferation (% untreated control) in 22RV1 cells with 5.0 μM MDV-3100,[2]; ASO dose 13.4 nM + 5.0 μM MDV-3100,24 % untreated control
same,Proliferation (% untreated control) in 22RV1 without MDV-3100,[2]; ASO dose 13.4 nM,37 % untreated control
same,Percent expression of AR in LNCaP cells cultured in CSS + DHT medium,[3]; 0.04 μM,104%
same,Percent expression of AR in LNCaP cells cultured in CSS + DHT medium,[3]; 0.2 μM,86%
same,Percent expression of AR in LNCaP cells cultured in CSS + DHT medium,[3]; 1 μM,55%
same,Percent expression of AR in LNCaP cells cultured in CSS + DHT medium,[3]; 5.0 μM,21%
same,Percent expression of AR in LNCaP cells cultured in CSS medium,[3]; 0.04 μM,94%
same,Percent expression of AR in LNCaP cells cultured in CSS medium,[3]; 0.2 μM,66%
same,Percent expression of AR in LNCaP cells cultured in CSS medium,[3]; 1 μM,35%
same,Percent expression of AR in LNCaP cells cultured in CSS medium,[3]; 5.0 μM,13%
same,Percent expression of AR in LNCaP cells cultured in complete medium,[3]; 0.04 μM,98%
same,Percent expression of AR in LNCaP cells cultured in complete medium,[3]; 0.2 μM,90%
same,Percent expression of AR in LNCaP cells cultured in complete medium,[3]; 1 μM,47%
same,Percent expression of AR in LNCaP cells cultured in complete medium,[3]; 5.0 μM,20%
same,Proliferation (% untreated control) in LNCaP cells cultured in CSS + DHT medium,[4]; 0.04 μM,95 % untreated control
same,Proliferation (% untreated control) in LNCaP cells cultured in CSS + DHT medium,[4]; 0.2 μM,99 % untreated control
same,Proliferation (% untreated control) in LNCaP cells cultured in CSS + DHT medium,[4]; 1 μM,54 % untreated control
same,Proliferation (% untreated control) in LNCaP cells cultured in CSS + DHT medium,[4]; 5.0 μM,17 % untreated control
same,proliferation of LNCaP cells,[4]; complete medium or CSS+1 nM DHT,reduced proliferation of the cells in a dose dependent compared to the control
same,Proliferation (% untreated control) in LNCaP cells cultured in complete medium,[4]; 0.04 μM,100 % untreated control
same,Proliferation (% untreated control) in LNCaP cells cultured in complete medium,[4]; 0.2 μM,85 % untreated control
same,Proliferation (% untreated control) in LNCaP cells cultured in complete medium,[4]; 1 μM,68 % untreated control
same,Proliferation (% untreated control) in LNCaP cells cultured in complete medium,[4]; 5.0 μM,54 % untreated control
same,Percent inhibition of TMPRSS2 expression,[5]; 0.04 μM,0%
same,Percent inhibition of TMPRSS2 expression,[5]; 0.2 μM,11%
same,Percent inhibition of TMPRSS2 expression,[5]; 1 μM,61%
same,Percent inhibition of TMPRSS2 expression,[5]; 5.0 μM,67%
same,Percent inhibition of TMPRSS2 expression in C4-2 cells cultured in complete medium,[5]; 0.04 μM,17%
same,Percent inhibition of TMPRSS2 expression in C4-2 cells cultured in complete medium,[5]; 0.2 μM,54%
same,Percent inhibition of TMPRSS2 expression in C4-2 cells cultured in complete medium,[5]; 1 μM,67%
same,Percent inhibition of TMPRSS2 expression in C4-2 cells cultured in complete medium,[5]; 5.0 μM,67%
same,Percent expression of AR,"[6]; CSS + DHT medium, 0.04 μM",67%
same,Percent expression of AR,"[6]; CSS + DHT medium, 0.2 μM",49%
same,Percent expression of AR,"[6]; CSS + DHT medium, 1 μM",24%
same,Percent expression of AR,"[6]; CSS + DHT medium, 5.0 μM",19%
same,Percent expression of AR,"[6]; complete medium, 0.04 μM",61%
same,Percent expression of AR,"[6]; complete medium, 0.2 μM",23%
same,Percent expression of AR,"[6]; complete medium, 1 μM",20%
same,Percent expression of AR,"[6]; complete medium, 5.0 μM",16%
